Experiment: Caco-2 cell monolayer bidirectional transport study
Assay type: in vitro ADME
Settings: human, Caco-2, pH 7.4

CC(C)NCC(O)COc1cccc2ccccc12 (stereo not drawn) [Propranolol]
Papp A→B at 2 h, 100 µM: 41.6 ± 2.4 ×10⁻⁶ cm/s
Papp B→A at 2 h, 100 µM: 21.3 ± 0.7 ×10⁻⁶ cm/s
efflux ratio at 2 h, 100 µM: 0.51
